Data taken from patent US20030153951A1, “Methods and devices for treating arrhythmias using defibrillation shocks” (priority 2002, published 2003).

Tests used:
ventricular fibrillation = assay: Defibrillation threshold (3-reversal up/down protocol) after electrically induced ventricular fibrillation in anesthetized pigs; assay type: in vivo
Source text: (§1) Six healthy pigs (30-35 kg) of either sex were anesthetized, monitored, and maintained under physiologic conditions. See, Chattipakorn et al. (2000). Two catheter-mounted platinum coated titanium coil electrodes were used as defibrillating electrodes. A 34-mm catheter was inserted into the right ventricular (RV) apex and served as the cathode for the first phase of the biphasic shock. […] The position of the catheters was verified with fluoroscopy. The blood pressure and heart rate were monitored continuously throughout the entire study.
Ventricular fibrillation was induced by 60-Hz alternating current delivered via an electrode at the tip of the RV catheter. After 10 seconds of ventricular fibrillation, defibrillation was attempted with 10-ms biphasic truncated exponential shocks. Delivered voltage and current were recorded on a waveform analyzer and total delivered energy was calculated. A minimum of 4 min was allowed to elapse between ventricular fibrillation episodes.
(§2) The defibrillation threshold was determined 4 times during 4 different conditions in this study. The defibrillation threshold in each group was determined using a 3-reversal up/down protocol. See Chattipakorn et al. The first defibrillation threshold was determined at the beginning of the study. This defibrillation threshold was used as a control defibrillation threshold (control-DFT). Then, Flunarizine, a delayed afterdepolarization inhibitor, was injected intravenously as a bolus (2 mg/kg) and maintenance (4 mg/kg/hr) dose. The second defibrillation threshold (drug-DFT) was determined 15 minutes after the application of Flunarizine. After the drug-DFT was obtained, the administration of Flunarizine was terminated while the blood pressure and heart rate were monitored. The third defibrillation threshold (washout-DFT) was determined again when the blood pressure returned to the control level which normally took 60 minutes after the termination of the drug.
Values are shown as mean standard deviation. Comparisons of data among different defibrillation threshold groups were performed using an analysis of variance. When statistical significance was found, individual differences were analyzed with a Fisher's post-hoc test. Differences were considered significant when P<0.05.

[1] = Systolic blood pressure monitored during the defibrillation threshold study; assay type: in vivo; conditions: pigs
Source text: as §1
as §2, with “Then, Flunarizine, a delayed afterdepolarization inhibitor, was injected intravenously as a bolus (2 mg/kg) and maintenance (4 mg/kg/hr) dose.” left out, “drug. […]” for “drug.”

Fc1ccc(C(c2ccc(F)cc2)N2CCN(C/C=C/c3ccccc3)CC2)cc1 [Flunarizine]
washout defibrillation threshold compared with control-DFT (ventricular fibrillation; after termination of drug, when blood pressure returned to control level (normally 60 minutes)): not significantly different from the control-DFT | reduction of the defibrillation threshold by energy (ventricular fibrillation; drug-DFT vs control-DFT): approximately 40% | reduction of the defibrillation threshold by leading edge voltage (ventricular fibrillation; drug-DFT vs control-DFT): approximately 22% | drug-DFT, delivered leading edge voltage (ventricular fibrillation; i.v. bolus 2 mg/kg + maintenance 4 mg/kg/hr, determined 15 minutes after application, 10-ms biphasic shocks, mean ± SD, control-DFT 623±120 volts): 485±82 volts | drug-DFT, total delivered energy (ventricular fibrillation; i.v. bolus 2 mg/kg + maintenance 4 mg/kg/hr, determined 15 minutes after application, mean ± SD, control-DFT 23±4 joules): 14±3 joules | systolic blood pressure ([1]; after i.v. injection (bolus 2 mg/kg + 4 mg/kg/hr), mean ± SD, control 102±11 mmHg): 76±10 mmHg | reduction of the systolic blood pressure ([1]; vs control): ~26%
